Data from patent EP4656642A1, “ESTROGEN RECEPTOR PROTEOLYSIS TARGETING CHIMERA COMPOUND AND USE THEREOF” (GAN & LEE PHARM CO., LTD, priority 2023, dated 2024).

Legend:
Assay type in all cases: cell-based
T-47D cells = test: Inhibition of cell proliferation in T-47D cells (CCK-8, 6 days); details: 6 days of treatment, Table 3
Outline: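 T-47D cells at 3,000 cells/well in RPMI 1640 with 10% FBS were exposed to a concentration series of PROTAC compounds for 6 days at 37 °C, 5% CO2. Viability was read by CCK-8, and IC50 values were derived for proliferation inhibition.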

ERα [1] = target: T1, ERα (Homo sapiens, UniProt P03372); test: Degradation of ERα in MCF-7 cells (immunoblotting, 4 h)
T1 sequence (P03372 1-595): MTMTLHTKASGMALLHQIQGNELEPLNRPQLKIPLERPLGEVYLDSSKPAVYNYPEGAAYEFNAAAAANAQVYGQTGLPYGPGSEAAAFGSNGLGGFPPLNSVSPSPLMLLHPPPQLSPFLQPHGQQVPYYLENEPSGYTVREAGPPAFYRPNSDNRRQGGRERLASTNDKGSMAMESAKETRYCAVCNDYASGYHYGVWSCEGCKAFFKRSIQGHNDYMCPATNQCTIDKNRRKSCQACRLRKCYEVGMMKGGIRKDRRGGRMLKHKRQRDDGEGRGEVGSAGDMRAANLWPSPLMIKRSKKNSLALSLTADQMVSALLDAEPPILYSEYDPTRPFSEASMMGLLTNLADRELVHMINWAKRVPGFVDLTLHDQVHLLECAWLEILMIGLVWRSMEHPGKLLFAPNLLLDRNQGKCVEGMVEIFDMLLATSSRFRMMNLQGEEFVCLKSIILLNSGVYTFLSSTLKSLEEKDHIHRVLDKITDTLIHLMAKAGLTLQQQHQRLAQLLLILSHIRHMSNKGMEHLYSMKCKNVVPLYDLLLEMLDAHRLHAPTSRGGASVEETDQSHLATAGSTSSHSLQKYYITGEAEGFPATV
Outline: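 MCF-7 cells treated 4 h at 37°C with compounds at 0.15-1000nM final. ERα in lysates measured by immunoblot, with band grayscale normalized to an internal reference protein. Degradation rate calculated against DMSO-treated control.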

ERα [2] = target: T1, ERα; test: Degradation of ERα in T-47D cells (immunoblotting, 4 h); parameters: host or cells: T-47D
Outline: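 T-47D cells were treated with compound (final 0.15-1000 nM, DMSO) for 4 h at 37°C, 5% CO2. Cells were lysed in RIPA buffer with protease inhibitor, and ERα protein in the cleared lysate was measured by immunoblotting.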

MCF-7 cells = test: Inhibition of cell proliferation of MCF-7 cells (CCK-8, 9 days); details: treated for 9 days, CCK-8 kit (Table 6)
Outline: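 MCF-7 cells seeded at 800 cells/well in DMEM with 10% FBS, exposed to a range of compound concentrations for 9 days at 37°C, 5% CO2. Viability read by CCK-8; IC50 derived for proliferation inhibition.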

SMILES	IC50 (T-47D cells) [nM]	Degradation rate (%) of ERα in MCF-7 cells (ERα [1]; 1nM compound) [%]	Degradation rate (%) of ERα in MCF-7 cells (ERα [1]; 10nM compound) [%]	Degradation rate (%) of ERα in T-47D cells (ERα [2]; 1nM compound) [%]	Degradation rate (%) of ERα in T-47D cells (ERα [2]; 10nM compound) [%]	IC50 (MCF-7 cells) [nM]
C[C@@H]1Cc2c(ccc3[nH]ncc23)C(c2ccc(N3CCC(C(=O)N4CCC(N5CCC6(CC5)COc5c6ccc6c5CN(C5CCC(=O)NC5=O)C6=O)CC4)CC3)cn2)N1CC(F)(F)F (stereo partly drawn) [B42]	2460	17	26	3	13	90900
CCN(C1CCN(c2ccc([C@@H]3c4ccc(O)cc4CC[C@@H]3c3ccccc3)cc2)CC1)[C@H]1CC[C@@H](C(=O)N2CCC3(CC2)COc2c3ccc3c2CN(C2CCC(=O)NC2=O)C3=O)CC1 (stereo partly drawn) [B43]	4.04	54	62	57	80	232
O=C1CCC(N2Cc3c(ccc4c3OCC43CCN(C(=O)[C@H]4CC[C@@H](N(CC5CC5)C5CCN(c6ccc([C@@H]7c8ccc(O)cc8CC[C@@H]7c7ccccc7)cc6)CC5)CC4)CC3)C2=O)C(=O)N1 (stereo partly drawn) [B48]	4.35	63	74	61	80	33.5
C[C@@H]1Cc2c(ccc3[nH]ncc23)C(c2ccc(N3CC4(CCC(N5CCC6(CC5)COc5c6ccc6c5CN(C5CCC(=O)NC5=O)C6=O)CC4)C3)cn2)N1CC(F)(F)F (stereo partly drawn) [B49]	316	24	43	42	68	7150
C[C@@H]1Cc2c(ccc3[nH]ncc23)[C@@H](c2c(F)cc(N3CCN(C[C@H]4CC[C@H](C(=O)N5CCC6(CC5)COc5c6ccc6c5CN(C5CCC(=O)NC5=O)C6=O)CC4)CC3)cc2F)N1CC(F)F (stereo partly drawn) [C12]	37.4	-34	22	27	47	180
CN(C(=O)CN1CCC2(CC1)COc1c2ccc2c1C(=O)N(C1CCC(=O)NC1=O)C2=O)C1CCC2(CC1)CCN(c1ccc([C@@H]3c4ccc(O)cc4CC[C@@H]3c3ccccc3)cc1)CC2 (stereo partly drawn) [C15]	9.07	18	45	41	71	406
CN(CC(=O)N1CC2(CCc3cc4c(cc3O2)C(=O)N(C2CCC(=O)NC2=O)C4)C1)C1CCC2(CC1)CN(c1ccc([C@@H]3c4ccc(O)cc4CC[C@@H]3c3ccccc3)cc1)C2 (stereo partly drawn) [C18]	11.1	10	29	24	50	11400
CN(CC(=O)N1CCC2(CC1)COc1c2ccc2c1C(=O)N(C1CCC(=O)NC1=O)C2=O)C1CCC2(CC1)CN(c1ccc([C@@H]3c4ccc(O)cc4CC[C@@H]3c3ccccc3)cc1)C2 (stereo partly drawn) [C19]	14.7	15	45	32	65	23100

Compounds with a lower IC50 (T-47D cells), results first:

IC50 (T-47D cells) [nM]	Degradation rate (%) of ERα in MCF-7 cells (ERα [1]; 1nM compound) [%]	Degradation rate (%) of ERα in MCF-7 cells (ERα [1]; 10nM compound) [%]	Degradation rate (%) of ERα in T-47D cells (ERα [2]; 1nM compound) [%]	Degradation rate (%) of ERα in T-47D cells (ERα [2]; 10nM compound) [%]	IC50 (MCF-7 cells) [nM]	SMILES
1.29	28	33	59	65	27100	O=C1CCC(N2Cc3c(ccc4c3OCC43CCN(C(=O)c4ccc(CN5CCN(c6ccc([C@@H]7c8ccc(O)cc8CC[C@@H]7c7ccccc7)cc6)CC5)nc4)CC3)C2=O)C(=O)N1 (stereo partly drawn) [B47]
1.15	18	49	50	72	8.05	O=C1CCC(N2Cc3c(ccc4c3OCC43CCN(C4CCN(C(=O)C5CCN(c6ccc([C@@H]7c8ccc(O)cc8CC[C@@H]7c7ccccc7)cc6)CC5)[C@@H](C(=O)N5CCC(F)(F)CC5)C4)CC3)C2=O)C(=O)N1 (stereo partly drawn) [C1]
1.68	42	63	49	81	31.1	O=C1CCC(N2Cc3c(ccc4c3OCC43CCN(C4CCN(C(=O)C5CCN(c6ccc([C@@H]7c8ccc(O)cc8CC[C@@H]7c7ccccc7)cc6)CC5)[C@@H](C(=O)N5CCC(F)(F)C5)C4)CC3)C2=O)C(=O)N1 (stereo partly drawn) [C2]
1.17	38	75	54	85	67	O=C1CCC(N2Cc3c(ccc4c3OCC43CCN(C4CCN(C(=O)C5CCN(c6ccc([C@@H]7c8ccc(O)cc8CC[C@@H]7c7ccccc7)cc6)CC5)[C@@H](C(=O)N5CC(F)(F)C5)C4)CC3)C2=O)C(=O)N1 (stereo partly drawn) [C4]
1.3	43	66	52	77	6.7	O=C1CCC(N2Cc3c(ccc4c3OCC43CCN(C(=O)C4CCC(CN5CCN(c6ccc(C7c8ccc(O)cc8CCC7c7ccccc7)cc6)CC5)CC4)CC3)C2=O)C(=O)N1 (stereo not drawn) [C5]
2.93	27	42	38	49	92.5	O=C1CCC(N2Cc3c(ccc4c3OCC43CCN(C(=O)C4CCC(CN5CCC(C#Cc6ccc(C7c8ccc(O)cc8CCC7c7ccccc7)cc6)CC5)CC4)CC3)C2=O)C(=O)N1 (stereo not drawn) [C6]
1.75	38	63	45	74	84.7	O=C1CCC(N2Cc3cc4c(cc3C2=O)CCC2(CN(C(=O)[C@H]3CC[C@H](CN5CCN(c6ccc([C@@H]7c8ccc(O)cc8CC[C@@H]7c7ccccc7)cc6)CC5)CC3)C2)O4)C(=O)N1 (stereo partly drawn) [C7]
0.99	29	40	60	78	2730	O=C1CCC(N2Cc3cc4c(cc3C2=O)OC2(CC4)CN(C(=O)[C@H]3CC[C@H](CN4CCN(c5ccc([C@@H]6c7ccc(O)cc7CC[C@@H]6c6ccccc6)cc5)CC4)CC3)C2)C(=O)N1 (stereo partly drawn) [C8]
0.5	53	65	65	80	54.8	C[C@@H]1Cc2c(ccc3[nH]ncc23)[C@@H](c2c(F)cc(N3CCC4(CCN(CC(=O)N5CCC6(CC5)COc5c6ccc6c5CN(C5CCC(=O)NC5=O)C6=O)CC4)CC3)cc2F)N1CC(F)F (stereo partly drawn) [C10]
0.66	60	69	56	68	5970	C[C@@H]1Cc2c(ccc3[nH]ncc23)[C@@H](c2c(F)cc(N3CCC4(CCN(CC(=O)N5CCC6(CC5)COc5c6ccc6c5CN(C5CCC(=O)NC5=O)C6=O)C4)CC3)cc2F)N1CC(F)F (stereo partly drawn) [C11]
0.61	41	62	46	70	3.24	C[C@@H]1Cc2c(ccc3[nH]ncc23)[C@@H](c2c(F)cc(N3CCC4(CCN(C(=O)CN5CCC6(CC5)COc5c6ccc6c5CN(C5CCC(=O)NC5=O)C6=O)CC4)CC3)cc2F)N1CC(F)F (stereo partly drawn) [C13]
0.96	41	55	50	66	15	C[C@@H]1Cc2c(ccc3[nH]ncc23)[C@@H](c2c(F)cc(N3CCC4(CCN(C(=O)CN5CCC6(CC5)COc5c6ccc6c5CN(C5CCC(=O)NC5=O)C6=O)C4)CC3)cc2F)N1CC(F)F (stereo partly drawn) [C14]
